Assay results taken from US10344049B2, “Substituted steroids for the treatment of cancer” (AQUAVAN TECHNOLOGY CO., LTD., priority 2017, dated 2019).
Where two headings read alike, the source gives them in different places.

Key:
Format in all cases: cell-based
[1] = tested on: African green monkey kidney cells Vero; test: Cell viability test (Resazurin), Vero cells
Experimental: (§1) Cell viability was determined with Resazurin (at a final concentration of 25 μg/mL).

[2] = tested on: human breast cancer cells MDA-MB-231; test: Cell viability test (Resazurin), MDA-MB-231 cells; parameters: evaluation of ability to inhibit cell growth activity (IC50): scale not given here
Experimental: as §1

[3] = tested on: human Glioblastoma cells U87-MG; test: Cell viability test (Resazurin), U87-MG cells; parameters: evaluation of ability to inhibit cell growth activity (IC50): scale not given here; settings: for evaluation of ability to inhibit cell growth activity (IC50): grade of the IC50 of Table 2
Experimental: as §1

[4] = tested on: human breast cancer cells MDA-MB-468; test: Cell viability test (Resazurin), MDA-MB-468 cells
Experimental: as §1

[5] = tested on: human liver cancer cells Mahlavu; test: Cell viability test (Resazurin), Mahlavu cells
Experimental: as §1

[6] = tested on: human lung cancer cells A549; test: Cell viability test (Resazurin), A549 cells; parameters: evaluation of ability to inhibit cell growth activity (IC50): scale not given here
Experimental: as §1

[7] = tested on: human colorectal cancer cells SW-480; test: Cell viability test (Resazurin), SW480 cells; parameters: evaluation of ability to inhibit cell growth activity (IC50): scale not given here
Experimental: as §1

[8] = tested on: human leukemia cells U937; test: Cell viability test (Resazurin), U937 cells
Experimental: as §1

[9] = 48 hours, 0.1% FCS, Resazurin, read-out: inhibitory concentrations of cell growth activity IC50
[10] = grade of the IC50 of Table 2, read-out: evaluation of ability to inhibit cell growth activity (IC50)
[11] = MDA-MB-231 cells, 48 hours, 0.1% FCS, Resazurin, read-out: inhibitory concentrations of cell growth activity IC50
[12] = MDA-MB-231 cells, grade of the IC50 of Table 2, read-out: evaluation of ability to inhibit cell growth activity (IC50)
[13] = MDA-MB-468 cells, 48 hours, 0.1% FCS, Resazurin, read-out: inhibitory concentrations of cell growth activity IC50
[14] = A549 cells, 48 hours, 0.1% FCS, Resazurin, read-out: inhibitory concentrations of cell growth activity IC50
[15] = A549 cells, grade of the IC50 of Table 2, read-out: evaluation of ability to inhibit cell growth activity (IC50)
[16] = SW480 cells, 48 hours, 0.1% FCS, Resazurin, read-out: inhibitory concentrations of cell growth activity IC50
[17] = SW480 cells, grade of the IC50 of Table 2, read-out: evaluation of ability to inhibit cell growth activity (IC50)
[18] = U937 cells, 48 hours, 0.1% FCS, Resazurin, read-out: inhibitory concentrations of cell growth activity IC50
[19] = Chlorocebus sabaeus, Vero, 48 h, 0.1% FCS, Resazurin, read-out: inhibitory concentrations of cell growth activity IC50
[20] = Chlorocebus sabaeus, Vero, grade of the IC50 of Table 2, read-out: evaluation of ability to inhibit cell growth activity (IC50)
[21] = Homo sapiens, MDA-MB-231, 48 h, MDA-MB-231 cells, 48 hours, 0.1% FCS, Resazurin, read-out: inhibitory concentrations of cell growth activity IC50
[22] = Homo sapiens, MDA-MB-231, MDA-MB-231 cells, grade of the IC50 of Table 2, read-out: evaluation of ability to inhibit cell growth activity (IC50)
[23] = Homo sapiens, U-87 MG, 48 h, 0.1% FCS, Resazurin, read-out: inhibitory concentrations of cell growth activity IC50
[24] = Homo sapiens, U-87 MG, grade of the IC50 of Table 2, read-out: evaluation of ability to inhibit cell growth activity (IC50)
[25] = Homo sapiens, MDA-MB-468, 48 h, MDA-MB-468 cells, 48 hours, 0.1% FCS, Resazurin, read-out: inhibitory concentrations of cell growth activity IC50
[26] = Homo sapiens, MDA-MB-468, MDA-MB-468 cells, grade of the IC50 of Table 2, read-out: evaluation of ability to inhibit cell growth activity (IC50)
[27] = Homo sapiens, Mahlavu, 48 h, 0.1% FCS, Resazurin, read-out: inhibitory concentrations of cell growth activity IC50
[28] = Homo sapiens, Mahlavu, grade of the IC50 of Table 2, read-out: evaluation of ability to inhibit cell growth activity (IC50)
[29] = Homo sapiens, A549, 48 h, A549 cells, 48 hours, 0.1% FCS, Resazurin, read-out: inhibitory concentrations of cell growth activity IC50
[30] = Homo sapiens, A549, A549 cells, grade of the IC50 of Table 2, read-out: evaluation of ability to inhibit cell growth activity (IC50)
[31] = Homo sapiens, SW480, 48 h, SW480 cells, 48 hours, 0.1% FCS, Resazurin, read-out: inhibitory concentrations of cell growth activity IC50
[32] = Homo sapiens, SW480, SW480 cells, grade of the IC50 of Table 2, read-out: evaluation of ability to inhibit cell growth activity (IC50)
[33] = Homo sapiens, U-937, 48 h, U937 cells, 48 hours, 0.1% FCS, Resazurin, read-out: inhibitory concentrations of cell growth activity IC50
[34] = Homo sapiens, U-937, U937 cells, grade of the IC50 of Table 2, read-out: evaluation of ability to inhibit cell growth activity (IC50)
[35] = MDA-MB-231 cells, grade of the IC50 of Table 2
[36] = A549 cells, grade of the IC50 of Table 2
[37] = SW480 cells, grade of the IC50 of Table 2
[38] = U937 cells, grade of the IC50 of Table 2
[39] = MDA-MB-468 cells, grade of the IC50 of Table 2

Compound	IC50 [1, 19] [µM]	IC50 [1, 20] [µM]	IC50 [2, 21] [µM]	IC50 [2, 22] [µM]	IC50 [3, 23] [µM]	IC50 [3, 24] [µM]	IC50 [4, 25] [µM]	IC50 [4, 26] [µM]	IC50 [5, 27] [µM]	IC50 [5, 28] [µM]	IC50 [6, 29] [µM]	IC50 [6, 30] [µM]	IC50 [7, 31] [µM]	IC50 [7, 32] [µM]	IC50 [8, 33] [µM]	IC50 [8, 34] [µM]	evaluation of ability to inhibit cell growth activity (IC50) [3]	evaluation of ability to inhibit cell growth activity (IC50) [7, 37]	evaluation of ability to inhibit cell growth activity (IC50) [4, 39]	also measured
CO[C@@H]1O[C@]23C=C[C@@H]4[C@@]1(CC[C@]1(C)[C@@H]([C@H](C)C[C@@H](O)C=C(C)C)CC[C@@]41C)[C@@H]2CC[C@H](O)C3(C)C [Compound 22]	–	–	–	–	–	–	–	–	–	–	–	–	–	–	–	–	–	–	–	IC50 [1, 9]: > 256 µM; IC50 [1, 10]: > 256 µM; IC50 [2, 11]: > 256 µM; IC50 [2, 12]: > 256 µM; IC50 [3, 9]: > 256 µM; IC50 [3, 10]: > 256 µM; IC50 [4, 13]: > 256 µM; IC50 ([4]; MDA-MB-468 cells, grade of the IC50 of Table 2, read-out: evaluation of ability to inhibit cell growth activity (IC50)): > 256 µM; IC50 [5, 9]: > 256 µM; IC50 [5, 10]: > 256 µM; IC50 [6, 14]: > 256 µM; IC50 [6, 15]: > 256 µM; IC50 [7, 16]: > 256 µM; IC50 [7, 17]: > 256 µM; IC50 [8, 18]: 6.17 µM; IC50 ([8]; U937 cells, grade of the IC50 of Table 2, read-out: evaluation of ability to inhibit cell growth activity (IC50)): < 8 µM
CC(C)=CC(=O)C[C@@H](C)[C@H]1CC[C@@]2(C)[C@@H]3[C@@H](O)C=C4[C@@H](CC[C@H](O)C4(C)C)[C@]3(C=O)CC[C@]12C [Compound 11]	> 256	> 256	> 256	> 256	> 256	> 256	> 256	> 256	> 256	> 256	> 256	> 256	> 256	> 256	84.2	64 to 256	–	–	–	–
CC(=O)O[C@H]1C=C2[C@@H](CC[C@H](OC(C)=O)C2(C)C)[C@]2(C=O)CC[C@]3(C)[C@@H]([C@H](C)C/C=C/C(C)(C)O)CC[C@@]3(C)[C@H]12 [Compound 4]	35.3	16 to 64	12.1	8 to 16	14.4	8 to 16	18.6	16 to 64	29.4	16 to 64	12.9	8 to 16	13	8 to 16	8.08	8 to 16	◯	◯	–	evaluation of ability to inhibit cell growth activity (IC50) [2, 35]: ◯; evaluation of ability to inhibit cell growth activity (IC50) [6, 36]: ◯; evaluation of ability to inhibit cell growth activity (IC50) [8, 38]: ◯
CC(=O)O[C@H]1CC[C@@H]2C(=C[C@H](O)[C@@H]3[C@@]2(C=O)CC[C@]2(C)[C@@H]([C@H](C)C[C@H](C=C(C)C)OC(C)=O)CC[C@@]32C)C1(C)C [Compound 6]	23.1	16 to 64	23.5	16 to 64	23.4	16 to 64	14	8 to 16	16.2	16 to 64	5.43	< 8	14.9	8 to 16	1.57	< 8	–	◯	◯	–
CC(=O)O[C@H]1C=C2[C@@H](CC[C@H](OC(C)=O)C2(C)C)[C@]2(C=O)CC[C@]3(C)[C@@H]([C@H](C)C[C@@H](O)C=C(C)C)CC[C@@]3(C)[C@H]12 [Compound 5]	25.3	16 to 64	8.07	8 to 16	8.8	8 to 16	16.8	16 to 64	18.5	16 to 64	12	8 to 16	16.4	16 to 64	3.67	< 8	◯	–	–	evaluation of ability to inhibit cell growth activity (IC50) [2, 35]: ◯; evaluation of ability to inhibit cell growth activity (IC50) [6, 36]: ◯
CC(=O)O[C@H]1C=C2[C@@H](CC[C@H](O)C2(C)C)[C@]2(C=O)CC[C@]3(C)[C@@H]([C@H](C)C[C@H](C=C(C)C)OC(C)=O)CC[C@@]3(C)[C@H]12 [Compound 7]	23.2	16 to 64	6	< 8	8.51	8 to 16	13.9	8 to 16	11.9	8 to 16	6.26	< 8	13.5	8 to 16	5.52	< 8	◯	◯	◯	evaluation of ability to inhibit cell growth activity (IC50) ([5]; grade of the IC50 of Table 2): ◯
COC1O[C@]23C=C[C@@H]4[C@@]1(CC[C@]1(C)[C@@H]([C@H](C)C/C=C/C(C)(C)OC)CC[C@@]41C)[C@@H]2CC[C@H](O)C3(C)C (stereo partly drawn) [Compound 17]	–	–	–	–	–	–	–	–	–	–	–	–	–	–	–	–	–	–	◯	IC50 [1, 9]: > 256 µM; IC50 [1, 10]: > 256 µM; IC50 [2, 11]: > 256 µM; IC50 [2, 12]: > 256 µM; IC50 [3, 9]: > 256 µM; IC50 [3, 10]: > 256 µM; IC50 [4, 13]: 9.4 µM; IC50 [5, 9]: > 256 µM; IC50 [5, 10]: > 256 µM; IC50 [6, 14]: > 256 µM; IC50 [6, 15]: > 256 µM; IC50 [7, 16]: > 256 µM; IC50 [7, 17]: > 256 µM; IC50 [8, 18]: 12.2 µM; evaluation of ability to inhibit cell growth activity (IC50) [8, 38]: ◯
